Source: publication PMC7306040, “Exploring the abundance of oleate hydratases in the genus Rhodococcus—discovery of novel enzymes with complementary substrate scope” (Applied Microbiology and Biotechnology, 2020)

What was measured:
RpOhy (DSM 20415) [1] = target: T1, RpOhy (DSM 20415) (Rhodococcus pyridinivorans, UniProt A0A7T7LF34); assay: yellow colour of purified enzyme; oleic acid conversion with […] added FAD; type: binding; details: 20 mM acetate pH 5, 25 °C, 500 uM oleic acid, 1% DMSO
T1 construct: gene INP59_15660; N-terminally His6-tagged, codon-optimised, pBAD/His A, E. coli TOP10; Ni-NTA and SEC; monomer, dimer and larger aggregates
T1 sequence (A0A7T7LF34 1-601): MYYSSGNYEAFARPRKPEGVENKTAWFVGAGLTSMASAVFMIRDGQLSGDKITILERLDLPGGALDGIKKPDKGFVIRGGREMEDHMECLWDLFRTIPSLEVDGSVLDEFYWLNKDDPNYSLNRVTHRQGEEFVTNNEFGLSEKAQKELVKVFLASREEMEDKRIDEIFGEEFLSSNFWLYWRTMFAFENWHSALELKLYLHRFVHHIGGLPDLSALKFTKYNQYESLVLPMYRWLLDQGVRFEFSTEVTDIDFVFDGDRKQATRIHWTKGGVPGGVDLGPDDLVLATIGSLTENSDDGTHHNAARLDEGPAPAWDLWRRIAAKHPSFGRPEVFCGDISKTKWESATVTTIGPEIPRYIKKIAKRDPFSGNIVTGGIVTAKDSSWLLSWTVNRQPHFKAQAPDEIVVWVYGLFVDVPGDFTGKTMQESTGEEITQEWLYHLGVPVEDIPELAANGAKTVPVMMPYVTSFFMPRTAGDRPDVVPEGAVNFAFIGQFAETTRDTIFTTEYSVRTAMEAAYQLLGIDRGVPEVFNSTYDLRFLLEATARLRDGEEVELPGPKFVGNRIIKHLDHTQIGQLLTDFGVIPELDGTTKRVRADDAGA

RpOhy (DSM 20415) [2] = target: T1, RpOhy (DSM 20415); assay: coupled assay with alcohol dehydrogenase ADH010, NADH at […] nm; type: biochemical; details: apparent cooperative, Hill n 2.45 ± 0.47; 2 mM NAD+, 50 mM PIPES pH 6.5, 10% DMSO; read-out: K0.5

| SMILES | yellow colour of purified enzyme; oleic acid conversion with 0-100 uM added FAD (RpOhy (DSM 20415) [1]) | Km (RpOhy (DSM 20415) [2]) [µM] |
| --- | --- | --- |
| Cc1cc2nc3c(=O)[nH]c(=O)nc-3n(C[C@H](O)[C@H](O)[C@H](O)COP(=O)(O)OP(=O)(O)OC[C@H]3O[C@@H](n4cnc5c(N)ncnc54)[C@H](O)[C@@H]3O)c2cc1C [FAD] | yellow colour indicating that the FAD cofactor was incorporated in the enzyme | – |
| CCCCCCCC/C=C\CCCCCCCC(=O)O [compound 3, Oleic acid] | – | 720 ± 70 |
